Measured values published in patent publication US20220257974A1, “PHOTOBIOMODULATION METHOD AND SYSTEM FOR INDUCING ACTIVITY OF BRAINDERIVED NERVE GROWTH FACTOR IN HIPPOCAMPAL TISSUE” (INDUSTRY ACADEMIC COOPERATION FOUNDATION KEIMYUNG UNIVERSITY, priority 2019, published 2022).

Experiments:
HT-22 cells = experiment: MTT analysis of cell survival under H2O2-induced oxidative stress; type: cell-based; details: without LED light
Description: The protection against apoptosis was analyzed using CCK-8 kit (Dojindo, Gaithersburg, Md.) and MTT as follows: HT-22 cells (5×10^5/ml) were plated on a 96-well plate and cultured in 100 µL of DMEM medium for 24 hours. Various concentrations of H2O2 were added to the cells, and the cells were cultured for 24 hours with LED irradiation of 660 nm. Then, 10 µL of MTT solution (5 mg/ml MTT in PBS) was added to each well and cultured at 37° C. for 2 hours. Absorbance was measured at 450 nm and 564 nm with a Victor multi label counter (Wallac, Turku, Finland).
The hippocampus HT-22 cell line was used to evaluate the effect of H2O2-induced oxidative stress on cell survival and apoptosis inhibitory effect by 660 nm of LED light (FIG. 2). […] In contrast, treatment with 660 nm of LED light increased cell survival rates to 88.4, 66.2, and 22.0%, respectively.

p-ERK and p-CREB = experiment: Western blot analysis of ERK and CREB phosphorylation in HT-22 cells; type: cell-based; details: H2O2 treatment
Description: The level of protein expression was evaluated by Western blot analysis. Cells were dissolved and centrifuged at 16,000 g. Then, the supernatant was electrophoresed at 12% SDA-PAGE and transferred to a nitrocellulose membrane. After blocking with 5% skim milk among Tween (0.05%)/PBS for 1 hour, the membrane was detected with primary antibody and a horseradish peroxidase (HRP)-conjugated antibody. The immunoreactive band was visualized using West Femto Chemi-luminescent substrate (Thermo). Protein levels were standardized with -actin expression using ChemiDOC XRS+ (Bio-Rad, Hercules, Calif., USA).

BDNF [1] = experiment: RT-PCR of BDNF expression in HT-22 cell; type: cell-based; details: H2O2 treatment
Excerpt: The used […] BDNF, forward [NT], and reverse [NT]; glutathione peroxidase (GPx), forward [NT], and reverse [NT]; superoxide dismutasee 1 (SOD1), forward [NT], and reverse [NT]; glutathione reductase (GR), forward [NT], and reverse [NT]; and h-GAPDH transfer [NT], reverse [NT]. All experiments were implemented three times.

BDNF [2] = details: PTSD-induced mice; cited from earlier work

| SMILES | cell survival rate (HT-22 cells; H2O2 100M) [%] | cell survival rate (HT-22 cells; H2O2 300M) [%] | cell survival rate (HT-22 cells; H2O2 1000M) [%] | p-ERK and p-CREB levels (p-ERK and p-CREB) | BDNF expression (BDNF [1]) | expression of BDNF and exercise ability (BDNF [2]) |
| --- | --- | --- | --- | --- | --- | --- |
| OO [H2O2] | 72.7 | 57.3 | 20.7 | increased p-ERK and p-CREB levels | reduced BDNF expression |  |
| CNCCC(Oc1ccc(C(F)(F)F)cc1)c1ccccc1 (stereo not drawn) [fluoxetine] |  |  |  |  |  | improved |
